Laboratory results: patent publication US8022072B2, “Azolylmethylidenehydrazine derivative and use thereof” (Kaken Pharmaceutical Co., Ltd., priority 2007, dated 2011)
In brackets after ≈: the same amount, converted by molar mass.

Assays:
[1] = test system: Trichophyton mentagrophytes KD-04; test: Antifungal activity evaluation test, MIC, Trichophyton mentagrophytes KD-04; type: cell-based; conditions: KD04, 168 h, Sabouraud Dextrose Broth, 30° C., 7 days, visual, read-out: MIC T. men. KD-04
Method: (§1) The minimum inhibitory concentration (MIC) for Trichophyton mentagrophytes, Trichophyton rubrum, and Malassezia furfur was measured according to the following procedure. • Test compound solution: A test compound was dissolved in dimethyl sulfoxide (DMSO) at a concentration of 5 mg/mL as a stock solution. […] Then, as a test medium, a fungal solution of Trichophyton species was 100-fold diluted with Sabouraud Dextrose Broth (Difco), and a fungal solution of Malassezia furfur IFO-0656 was 100-fold diluted with MU medium to give each inoculum (2×10^4 cells/mL). • Measurement of MIC of Trichophyton fungi: Sabouraud Dextrose Broth (Difco) was dispensed by 100 μL to a given well of a 96 well flat microplate. Then, a test compound solution (2 μL) was added, and the mixture was thoroughly mixed with a plate mixer. A fungal solution (100 μL) was inoculated and cultured at 30° C. for 7 days. The presence or absence of the cell growth was visually observed, and the minimum medicament concentration at which the cell growth was prevented was taken as MIC (μg/mL). • Measurement of MIC of Malassezia furfur: Since the urease activity of this fungus and the fungus growth rate are co-related, MIC was evaluated by the following method using urease activity as an index. MU medium was dispensed by 100 μL to a given well of a 96 well flat microplate. Then, a test compound solution (2 μL) was added, and the mixture was thoroughly mixed with a plate mixer. A fungal solution (100 μL) was inoculated and cultured at 30° C. The culture was stopped on day 4 or 5 of culture when the color tone of the MU medium changes from yellow to red in visual observation of the fungus growth in a well free of addition of a test substance. Then the plate was stirred until the fungus became uniform, and the urease activity was measured based on the measurement of absorbance at 550 nm using a plate reader.

[2] = test system: Trichophyton mentagrophytes SM-110; test: Antifungal activity evaluation test, MIC, Trichophyton mentagrophytes SM-110; type: cell-based; conditions: SM110, 168 h, Sabouraud Dextrose Broth, 30° C., 7 days, visual, read-out: MIC T. men. SM-110
Method: as §1

[3] = test system: Trichophyton rubrum KD-101; test: Antifungal activity evaluation test, MIC, Trichophyton rubrum KD-101; type: cell-based; conditions: KD101, 168 h, Sabouraud Dextrose Broth, 30° C., 7 days, visual, read-out: MIC T. rub. KD-101
Method: as §1

[4] = test system: Trichophyton rubrum KD-107; test: Antifungal activity evaluation test, MIC, Trichophyton rubrum KD-107; type: cell-based; conditions: KD107, 168 h, Sabouraud Dextrose Broth, 30° C., 7 days, visual, read-out: MIC T. rub. KD-107
Method: as §1

[5] = test system: Malassezia furfur IFO-0656; test: Antifungal activity evaluation test, MIC by urease activity, Malassezia furfur IFO-0656; type: cell-based; conditions: IFO0656, 96 h, MU medium, 30° C., day 4 or 5, urease activity of 20% or below, read-out: MIC M. fur. IFO-0656
Method: as §1

TNCB-induced dermatitis = test: 2,4,6-Trinitrochlorobenzene (TNCB)-induced dermatitis model, ear edema; type: in vivo, male BALB/c mouse; conditions: test compound 1 w/v % (FK506 0.1 w/v %), 20 μL applied to auricle, 24 hours after induction
Method: (§2) The test compound was adjusted to 1 w/v % when in use with a solvent (acetone:olive oil=1:1, v/v)) and put to use. FK506 (control substance) was adjusted to 0.1 w/v % and used.
The fur on the abdomen of male BALB/c mouse was shaved with a hair clipper, and 100 μL of 7 w/v % TNCB sensitizing liquid (solvent was acetone:olive oil=4:1, v/v) was applied. Six days after the sensitization, the thickness of the right auricle was measured with a micrometer (pre-value). After the measurement, 10 μL of 1 w/v % TNCB challenge liquid (solvent was acetone:olive oil=1:9, v/v) was applied to the inside of the right auricle to induce ear edema. About 5 minutes after the application of the challenge liquid, 20 μL of the test compound was applied to the outside of the auricle.
After 24 hours from the induction of ear edema, the thickness of the right auricle was measured by a method similar to the pre-value (post-value). The difference between the post-value and the pre-value of ear edema by each test compound was determined, based on which the inhibition rate was calculated. The activity of each test compound was calculated with the ear edema inhibition rate of FK506 as 1.0 (ear edema inhibition rate of each test compound/ear edema inhibition rate of FK506).

OVA-induced dermatitis = test: Ovalbumin (OVA)-induced dermatitis model, ear edema; type: in vivo, male ICR mouse; set-up: key: ratio of compound's ear edema inhibition rate to FK506's (FK506 = 1.0); conditions: test compound 1 w/v % (FK506 0.1 w/v %), 20 μL applied to auricle, 24 hours after induction
Method: as §2
Male ICR mouse was sensitized by the administration of 0.2 mL of OVA-hydroxide aluminum gel suspension to the abdominal cavity. After 14 days from the sensitization, the thickness of the right auricle was measured with a micrometer (pre-value). After the measurement, 20 μL of 0.5 μg/mL OVA challenge liquid (solvent was physiological saline) was subcutaneously administered to the inside of the auricle to induce ear edema. About 5 minutes after the administration of the challenge liquid, 20 μL of the test compound was applied to the outside of the auricle. After 24 hours from the induction of ear edema, the thickness of the right auricle was measured by a method similar to the pre-value (post-value). The difference between the post-value and the pre-value of ear edema by each test compound was determined, based on which the inhibition rate was calculated. The activity of each test compound was calculated with the ear edema inhibition rate of FK506 as 1.0 (ear edema inhibition rate of each test compound/ear edema inhibition rate of FK506).

[6] = test system: Trichophyton mentagrophytes KD-04; test: Influence of keratin addition on anti-Trichophyton activity; type: cell-based; conditions: Trichophyton mentagrophytes, KD04, 168 h, 30° C., 7 days
Method: The MIC increase rate by the addition of keratin to a medium was measured by the following procedure. • Test compound solution: A test compound was dissolved in dimethyl sulfoxide (DMSO) at a concentration of 5 mg/mL as a stock solution. Diluting this solution with DMSO, a 2-fold dilution series was prepared. • Test strain: Trichophyton mentagrophytes KD-04 was used. Preparation of Fungal Inoculum: the Above-Mentioned Strain was suspended in 0.05% Tween 80-containing physiological saline, and adjusted to a fungus concentration of 2×10^6 cells/mL using a counting chamber. […] The physiological saline was removed, and the mixture was further washed once with physiological saline (3 mL). The physiological saline was removed, and a test compound solution (10 μL) and Sabouraud Dextrose Broth (Difco) (500 μL) were added to keratin, and the mixture was sufficiently stirred. Then, inoculum (500 μL) of T. mentagrophytes KD-04 was added, and the mixture was cultured at 30° C. for 7 days. As a comparison control, an experiment similar to the above was performed under conditions free of keratin addition.

[7] = T. mentagrophytes KD-04, free of keratin addition, read-out: MIC SDB alone
[8] = T. mentagrophytes KD-04, keratin 50 mg added, read-out: MIC SDB + keratin

MIC [1] | MIC [2] | MIC [3] | MIC [4] | MIC [5] | MIC [6, 7] | MIC [6, 8] | SMILES | TNCB-induced dermatitis, with ear edema inhibition rate of FK506 as 1.0 (TNCB-induced dermatitis) | OVA-induced dermatitis, with ear edema inhibition rate of FK506 as 1.0 (OVA-induced dermatitis)
0.05 µg/mL (≈ 0.157 µM) | 0.1 µg/mL (≈ 0.314 µM) | 0.1 µg/mL (≈ 0.314 µM) | 0.05 µg/mL (≈ 0.157 µM) | 0.78 µg/mL (≈ 2.45 µM) | – | – | CN(C)N=C(c1ccccc1CCc1ccccc1)n1ccnc1 [Compound No. 6, N′-[1-imidazol-1-yl-1-(2-phenethylphenyl)methylidene]-N,N-dimethylhydrazine] | 0.7 | 1.4
0.05 µg/mL (≈ 0.143 µM) | 0.2 µg/mL (≈ 0.574 µM) | 0.05 µg/mL (≈ 0.143 µM) | 0.05 µg/mL (≈ 0.143 µM) | 0.2 µg/mL (≈ 0.574 µM) | – | – | CN(C)N=C(c1ccccc1CCCOc1ccccc1)n1ccnc1 [Compound No. 9, N′-[1-imidazol-1-yl-1-[2-(3-phenoxypropyl)phenyl]methylidene]-N,N-dimethylhydrazine] | 0.7 | 1.2
0.2 µg/mL (≈ 0.571 µM) | 0.39 µg/mL (≈ 1.11 µM) | 0.05 µg/mL (≈ 0.143 µM) | 0.05 µg/mL (≈ 0.143 µM) | 0.39 µg/mL (≈ 1.11 µM) | 0.1 µg/mL (≈ 0.285 µM) | 0.2 µg/mL | COc1ccc(COc2ccccc2C(=NN(C)C)n2ccnc2)cc1 [Compound No. 52, N′-[1-imidazol-1-yl-1-[2-(4-methoxybenzyloxy)phenyl]methylidene]-N,N-dimethylhydrazine] | 0.7 | 1.1
0.1 µg/mL (≈ 0.285 µM) | 0.2 µg/mL (≈ 0.571 µM) | 0.1 µg/mL (≈ 0.285 µM) | 0.05 µg/mL (≈ 0.143 µM) | 0.39 µg/mL (≈ 1.11 µM) | 0.05 µg/mL (≈ 0.143 µM) | 0.1 µg/mL | CN(C)N=C(c1ccccc1OCCOc1ccccc1)n1ccnc1 [Compound No. 66, N′-[1-imidazol-1-yl-1-[2-(2-phenoxyethoxy)phenyl]methylidene]-N,N-dimethylhydrazine] | 0.8 | 1.1
0.05 µg/mL (≈ 0.165 µM) | 0.2 µg/mL (≈ 0.661 µM) | 0.1 µg/mL (≈ 0.331 µM) | 0.05 µg/mL (≈ 0.165 µM) | 0.78 µg/mL (≈ 2.58 µM) | 0.1 µg/mL (≈ 0.331 µM) | 0.2 µg/mL | CCCCSc1ccccc1C(=NN(C)C)n1ccnc1 [Compound No. 82, N′-[1-(2-butylthiophenyl)-1-imidazol-1-ylmethylidene]-N,N-dimethylhydrazine] | 0.6 | 1.1
0.05 µg/mL (≈ 0.14 µM) | 0.2 µg/mL (≈ 0.561 µM) | 0.05 µg/mL (≈ 0.14 µM) | 0.05 µg/mL (≈ 0.14 µM) | 0.2 µg/mL (≈ 0.561 µM) | – | – | CN(C)N=C(c1sccc1OCCOc1ccccc1)n1ccnc1 [Compound No. 101, N′-[1-imidazol-1-yl-1-[3-(2-phenoxyethoxy)thiophen-2-yl]methylidene]-N,N-dimethylhydrazine] | 0.8 | 1.4
0.2 µg/mL (≈ 0.549 µM) | 0.39 µg/mL (≈ 1.07 µM) | 0.1 µg/mL (≈ 0.274 µM) | 0.05 µg/mL (≈ 0.137 µM) | 0.2 µg/mL (≈ 0.549 µM) | – | – | CCN(C)N=C(c1ccccc1OCCOc1ccccc1)n1ccnc1 [Compound No. 114, N-ethyl-N′-[1-imidazol-1-yl-1-[2-(2-phenoxyethoxy)phenyl]methylidene]-N-methylhydrazine] | 0.7 | 0.9
0.05 µg/mL (≈ 0.153 µM) | 0.1 µg/mL (≈ 0.306 µM) | 0.05 µg/mL (≈ 0.153 µM) | 0.05 µg/mL (≈ 0.153 µM) | 0.2 µg/mL (≈ 0.613 µM) | – | – | CCCCCOc1ccccc1C(=NN1CCCC1)n1ccnc1 [Compound No. 157, [1-imidazol-1-yl-1-(2-pentyloxyphenyl)methylidene]pyrrolidin-1-ylamine] | 0.8 | 1.3
0.2 µg/mL (≈ 0.531 µM) | 0.39 µg/mL (≈ 1.04 µM) | 0.1 µg/mL (≈ 0.266 µM) | 0.1 µg/mL (≈ 0.266 µM) | 0.39 µg/mL (≈ 1.04 µM) | – | – | c1ccc(OCCOc2ccccc2C(=NN2CCCC2)n2ccnc2)cc1 [Compound No. 161, [1-imidazol-1-yl-1-[2-(2-phenoxyethoxy)phenyl]methylidene]pyrrolidin-1-ylamine] | 0.7 | 0.9

SMILES | MIC [1] | MIC [2] | MIC [3] | MIC [4] | MIC [5] | MIC [6, 7] | MIC [6, 8] | TNCB-induced dermatitis, with ear edema inhibition rate of FK506 as 1.0 (TNCB-induced dermatitis) | OVA-induced dermatitis, with ear edema inhibition rate of FK506 as 1.0 (OVA-induced dermatitis)
CN(C)N=C(c1ccccc1OCCCCOc1ccccc1)n1ccnc1 [Compound No. 71, N′-[1-imidazol-1-yl-1-[2-(4-phenoxybutoxy)phenyl]methylidene]-N,N-dimethylhydrazine] | 0.05 µg/mL (≈ 0.132 µM) | 0.1 µg/mL (≈ 0.264 µM) | 0.05 µg/mL (≈ 0.132 µM) | 0.025 µg/mL (≈ 0.0661 µM) | 0.05 µg/mL (≈ 0.132 µM) | – | – | 0.9 | 0.9
